The values that follow come from ChEMBL document CHEMBL1201862, “PubChem BioAssay data set” (2004).

Activity calls are given as the source filed them.

Assay [1] deals with T1, Cannabinoid receptor 2 (Homo sapiens, UniProt P34972). Description: SAR analysis of agonists of the Cannabinoid Receptor 2 using an Image-Based Assay - Set 2. [Related pubchem assays (depositor defined):AID1961, AID1965]. The assay is classed as functional.
In assay [2] the target is T1, Cannabinoid receptor 2. The assay can be described thus: SAR analysis of antagonists of the Cannabinoid Receptor 2 using an Image-Based Assay - Set 2. [Related pubchem assays (depositor defined):AID1961, AID1965]. The assay is classed as functional.
In the next assay the target is Cannabinoid receptor 1 (Homo sapiens, UniProt P21554). Description: SAR analysis of antagonists of the Cannabinoid Receptor 1 using an Image-Based Assay. [Related pubchem assays (depositor defined):AID1961, AID1965]. The assay is classed as functional.
Sequence of Cannabinoid receptor 1 (P21554 whole entry): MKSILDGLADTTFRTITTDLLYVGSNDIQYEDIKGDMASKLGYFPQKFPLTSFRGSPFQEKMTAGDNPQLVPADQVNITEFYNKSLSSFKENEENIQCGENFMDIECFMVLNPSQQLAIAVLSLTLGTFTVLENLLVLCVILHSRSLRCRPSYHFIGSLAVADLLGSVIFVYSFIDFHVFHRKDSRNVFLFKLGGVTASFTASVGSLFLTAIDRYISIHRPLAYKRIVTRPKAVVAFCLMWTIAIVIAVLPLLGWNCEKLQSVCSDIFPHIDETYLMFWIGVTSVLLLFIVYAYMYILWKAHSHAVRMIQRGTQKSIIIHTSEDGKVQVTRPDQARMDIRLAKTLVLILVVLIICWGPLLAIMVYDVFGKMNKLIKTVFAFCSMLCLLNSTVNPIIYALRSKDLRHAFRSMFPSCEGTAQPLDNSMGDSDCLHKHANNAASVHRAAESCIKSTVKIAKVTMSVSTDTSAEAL
Assay [3] concerns the target G-protein coupled receptor 55 (Homo sapiens, UniProt Q9Y2T6). Description: SAR analysis of selective Agonists of GPR55 using an Image-Based Assay. [Related pubchem assays (depositor defined):AID1961, AID1965]. The assay is classed as functional.
Assay [4] concerns the target T2, Mannose-6-phosphate isomerase (Homo sapiens, UniProt P34949).
T2 sequence (P34949 whole entry): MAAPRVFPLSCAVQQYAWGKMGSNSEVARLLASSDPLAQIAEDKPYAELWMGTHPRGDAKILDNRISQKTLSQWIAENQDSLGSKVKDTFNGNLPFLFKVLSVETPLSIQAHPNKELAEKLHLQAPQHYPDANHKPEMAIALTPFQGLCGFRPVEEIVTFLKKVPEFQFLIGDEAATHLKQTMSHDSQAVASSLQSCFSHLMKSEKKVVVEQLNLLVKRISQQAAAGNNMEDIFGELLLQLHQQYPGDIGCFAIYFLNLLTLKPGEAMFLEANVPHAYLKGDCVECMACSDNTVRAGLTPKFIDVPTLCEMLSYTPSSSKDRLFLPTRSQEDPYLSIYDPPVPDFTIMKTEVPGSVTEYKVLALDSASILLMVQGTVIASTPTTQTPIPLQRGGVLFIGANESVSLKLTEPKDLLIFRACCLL
Description: phosphomannose isomerase inhibition – biochemical, fluorescence intensity, confirmation (AID 1535).

For assay [5], the target named is T2, Mannose-6-phosphate isomerase. The assay can be described thus: Confirmation of compounds inhibiting phosphomannose isomerase (PMI) via a fluorescence intensity assay using a high concentration of mannose 6-phosphate. [Related pubchem assays (depositor defined):AID1209, AID1220, AID1545, AID1553, AID1620].
Assay [6] has as its target Alkaline phosphatase, placental type (Homo sapiens, UniProt P05187). The assay can be described thus: human placental alkaline phosphatase inhibition – biochemical, luminescence, confirmation (AID 1512). The assay is classed as functional.
The target in assay [7] is Intestinal-type alkaline phosphatase (Homo sapiens, UniProt P09923). Description: activation of human intestinal alkaline phosphatase – biochemical, dose response (AID 488873). The assay is classed as functional.
Sequence of Intestinal-type alkaline phosphatase (Homo sapiens, UniProt P09923) (P09923 whole entry): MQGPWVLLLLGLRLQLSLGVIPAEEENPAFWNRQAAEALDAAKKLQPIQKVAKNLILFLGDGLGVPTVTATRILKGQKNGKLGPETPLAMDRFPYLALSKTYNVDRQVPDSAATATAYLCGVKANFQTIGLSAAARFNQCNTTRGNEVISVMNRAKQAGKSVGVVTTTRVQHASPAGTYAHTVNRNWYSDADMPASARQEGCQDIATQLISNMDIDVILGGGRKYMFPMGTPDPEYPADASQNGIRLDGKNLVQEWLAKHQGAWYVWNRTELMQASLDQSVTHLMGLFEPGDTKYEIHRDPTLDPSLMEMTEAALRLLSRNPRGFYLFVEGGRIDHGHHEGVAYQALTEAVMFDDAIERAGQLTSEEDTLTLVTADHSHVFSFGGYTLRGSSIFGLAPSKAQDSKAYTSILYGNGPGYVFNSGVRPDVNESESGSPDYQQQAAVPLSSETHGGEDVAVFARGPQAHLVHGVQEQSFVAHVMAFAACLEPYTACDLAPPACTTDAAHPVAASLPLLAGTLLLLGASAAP
Assay [8] has as its target Induced myeloid leukemia cell differentiation protein Mcl-1 (Homo sapiens, UniProt Q07820). The assay is classed as functional.
Assay [9] concerns the target 1-phosphatidylinositol 4,5-bisphosphate phosphodiesterase beta-3 (Homo sapiens, UniProt Q01970). The assay can be described thus: Fluorescence-based biochemical high throughput dose response assay to identify inhibitors of phospholipase C isozymes (PLC-B3).
Assay [10] addresses Intestinal-type alkaline phosphatase (Mus musculus, UniProt P24822). The assay can be described thus: mouse intestinal alkaline phosphatase activators, dose response, biochemical, luminescence, uHTS hits (AID 488783). The assay is classed as functional.
Assay [11] deals with 1-phosphatidylinositol 4,5-bisphosphate phosphodiesterase gamma-1 (Homo sapiens, UniProt P19174). The assay can be described thus: Counterscreen for inhibitors of phospholipase C isozymes (PLC-B3): Fluorescence-based biochemical high throughput dose response assay to identify inhibitors of phospholipase C isozymes (PLC-gamma1). In general terms: The purpose of a counterscreen is to sort out artefacts and off-target activity.

In a further assay the target is NS3 (Hepatitis C virus, UniProt A3EZJ3). The assay can be described thus: PubChem AID 2173. More on the design: species or system Hepacivirus hominis.
Sequence of NS3 (A3EZJ3 whole entry): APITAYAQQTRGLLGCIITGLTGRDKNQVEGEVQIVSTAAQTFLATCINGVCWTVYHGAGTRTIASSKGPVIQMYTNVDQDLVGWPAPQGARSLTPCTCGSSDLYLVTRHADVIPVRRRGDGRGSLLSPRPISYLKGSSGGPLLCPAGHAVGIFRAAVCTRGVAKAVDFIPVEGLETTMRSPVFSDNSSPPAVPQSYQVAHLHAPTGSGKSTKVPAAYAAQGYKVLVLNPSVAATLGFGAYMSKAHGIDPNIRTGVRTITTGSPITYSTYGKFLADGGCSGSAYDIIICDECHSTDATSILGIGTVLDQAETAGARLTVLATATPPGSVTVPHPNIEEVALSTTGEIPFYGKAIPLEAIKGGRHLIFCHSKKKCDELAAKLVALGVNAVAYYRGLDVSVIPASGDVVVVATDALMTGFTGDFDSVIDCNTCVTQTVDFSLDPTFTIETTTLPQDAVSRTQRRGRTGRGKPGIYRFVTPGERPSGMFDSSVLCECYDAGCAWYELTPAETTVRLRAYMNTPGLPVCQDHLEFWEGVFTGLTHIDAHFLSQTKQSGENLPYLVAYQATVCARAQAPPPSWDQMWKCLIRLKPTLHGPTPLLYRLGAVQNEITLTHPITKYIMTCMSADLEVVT
Assay [12] addresses T3, Alkaline phosphatase, tissue-nonspecific isozyme (Homo sapiens, UniProt P05186).
T3 sequence (P05186 whole entry): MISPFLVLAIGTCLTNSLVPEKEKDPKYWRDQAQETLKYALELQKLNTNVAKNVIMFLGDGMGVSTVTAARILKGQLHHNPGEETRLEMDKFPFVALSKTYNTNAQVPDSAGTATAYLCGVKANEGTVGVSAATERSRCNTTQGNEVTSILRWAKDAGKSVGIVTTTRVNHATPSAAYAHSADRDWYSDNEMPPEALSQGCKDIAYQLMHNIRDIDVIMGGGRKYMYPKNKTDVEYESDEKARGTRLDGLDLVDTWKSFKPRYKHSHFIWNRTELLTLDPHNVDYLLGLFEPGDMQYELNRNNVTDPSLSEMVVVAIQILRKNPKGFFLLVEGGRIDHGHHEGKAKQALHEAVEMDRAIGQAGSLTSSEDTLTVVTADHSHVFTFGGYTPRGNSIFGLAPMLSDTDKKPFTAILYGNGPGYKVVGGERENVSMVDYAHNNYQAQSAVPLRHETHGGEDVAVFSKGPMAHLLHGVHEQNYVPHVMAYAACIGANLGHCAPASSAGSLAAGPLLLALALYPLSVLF
The assay can be described thus: activation of tissue-nonspecific alkaline phosphatase – biochemical, TNAP isozyme, mouse IAP uHTS hits, selectivity assay for mouse IAP activator project, dose response (AID 488880). The assay is classed as functional.

For assay [13], the target named is Type-1 angiotensin II receptor (Homo sapiens, UniProt P30556). Description: agonist activity at AGTR1 – cell-based, uHTS hits, selectivity assay for APJ receptor agonist project, dose response (AID 488865).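 Note: beta-arrestin recruitment to AT1 measured by enzyme fragment complementation luminescence.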 The assay is classed as functional.
Sequence of Type-1 angiotensin II receptor (P30556 whole entry, the tested form may be a part): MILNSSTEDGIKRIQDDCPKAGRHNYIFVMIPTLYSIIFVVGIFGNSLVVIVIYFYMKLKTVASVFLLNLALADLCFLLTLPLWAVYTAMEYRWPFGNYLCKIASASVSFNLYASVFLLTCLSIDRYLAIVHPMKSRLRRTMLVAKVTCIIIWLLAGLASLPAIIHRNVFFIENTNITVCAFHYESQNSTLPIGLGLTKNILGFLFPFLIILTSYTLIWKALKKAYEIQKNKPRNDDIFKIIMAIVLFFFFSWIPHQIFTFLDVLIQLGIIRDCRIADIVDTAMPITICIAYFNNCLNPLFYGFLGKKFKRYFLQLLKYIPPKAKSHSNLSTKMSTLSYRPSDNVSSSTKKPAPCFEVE
For assay [14], the target named is T4, E3 ubiquitin-protein ligase XIAP (Homo sapiens, UniProt P98170). The assay can be described thus: Counter Screen using XIAP-Bir3 of the Chemical Antagonists of IAP-family anti-apoptotic proteins confirmation assay. [Related pubchem assays (depositor defined):AID1018, AID1449, AID1513, AID1638, AID1749, AID1750, AID488957, AID488963].
T4 sequence (P98170 whole entry): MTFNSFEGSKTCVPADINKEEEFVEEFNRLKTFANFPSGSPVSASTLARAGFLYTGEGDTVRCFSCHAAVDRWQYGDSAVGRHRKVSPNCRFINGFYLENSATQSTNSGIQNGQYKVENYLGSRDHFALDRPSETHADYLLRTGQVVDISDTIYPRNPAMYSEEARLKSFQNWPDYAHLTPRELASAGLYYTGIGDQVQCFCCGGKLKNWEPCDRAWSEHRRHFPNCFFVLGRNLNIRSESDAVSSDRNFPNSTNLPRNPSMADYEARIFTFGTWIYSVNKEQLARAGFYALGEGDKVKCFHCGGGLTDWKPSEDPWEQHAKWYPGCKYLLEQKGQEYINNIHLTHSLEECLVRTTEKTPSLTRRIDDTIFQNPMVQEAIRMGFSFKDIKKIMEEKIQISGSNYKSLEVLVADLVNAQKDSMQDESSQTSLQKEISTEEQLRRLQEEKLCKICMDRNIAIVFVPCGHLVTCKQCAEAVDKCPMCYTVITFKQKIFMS
Assay [15] has as its target T4, E3 ubiquitin-protein ligase XIAP. The assay can be described thus: Chemical Antagonists of IAP-family anti-apoptotic proteins confirmation. [Related pubchem assays (depositor defined):AID1018, AID1513, AID1514, AID1638, AID1749, AID1750, AID488957, AID488963].

T1 sequence (P34972 whole entry): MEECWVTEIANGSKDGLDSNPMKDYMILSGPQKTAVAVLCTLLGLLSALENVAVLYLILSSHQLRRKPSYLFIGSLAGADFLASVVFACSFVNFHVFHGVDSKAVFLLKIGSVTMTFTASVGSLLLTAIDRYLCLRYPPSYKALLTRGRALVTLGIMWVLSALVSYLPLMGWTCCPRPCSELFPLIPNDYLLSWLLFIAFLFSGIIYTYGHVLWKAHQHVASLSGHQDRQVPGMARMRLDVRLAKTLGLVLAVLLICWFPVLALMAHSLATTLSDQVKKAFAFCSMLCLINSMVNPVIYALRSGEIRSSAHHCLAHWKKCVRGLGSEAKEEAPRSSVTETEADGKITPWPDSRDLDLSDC
Sequence of Intestinal-type alkaline phosphatase (Mus musculus, UniProt P24822) (P24822 whole entry): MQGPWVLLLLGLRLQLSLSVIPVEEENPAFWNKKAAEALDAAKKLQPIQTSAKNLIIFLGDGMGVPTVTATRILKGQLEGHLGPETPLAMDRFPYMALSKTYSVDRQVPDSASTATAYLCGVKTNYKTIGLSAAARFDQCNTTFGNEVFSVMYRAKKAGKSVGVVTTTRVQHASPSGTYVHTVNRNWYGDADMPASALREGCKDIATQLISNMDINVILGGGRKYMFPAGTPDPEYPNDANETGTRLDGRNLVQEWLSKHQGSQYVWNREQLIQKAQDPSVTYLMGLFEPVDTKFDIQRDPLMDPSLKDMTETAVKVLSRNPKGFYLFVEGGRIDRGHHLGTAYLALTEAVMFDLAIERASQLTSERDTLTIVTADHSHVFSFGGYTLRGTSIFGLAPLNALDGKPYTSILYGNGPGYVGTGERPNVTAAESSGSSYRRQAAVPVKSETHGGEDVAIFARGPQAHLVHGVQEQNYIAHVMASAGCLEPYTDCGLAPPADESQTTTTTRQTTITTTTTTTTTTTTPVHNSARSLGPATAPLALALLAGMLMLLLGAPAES
Sequence of G-protein coupled receptor 55 (Q9Y2T6 whole entry): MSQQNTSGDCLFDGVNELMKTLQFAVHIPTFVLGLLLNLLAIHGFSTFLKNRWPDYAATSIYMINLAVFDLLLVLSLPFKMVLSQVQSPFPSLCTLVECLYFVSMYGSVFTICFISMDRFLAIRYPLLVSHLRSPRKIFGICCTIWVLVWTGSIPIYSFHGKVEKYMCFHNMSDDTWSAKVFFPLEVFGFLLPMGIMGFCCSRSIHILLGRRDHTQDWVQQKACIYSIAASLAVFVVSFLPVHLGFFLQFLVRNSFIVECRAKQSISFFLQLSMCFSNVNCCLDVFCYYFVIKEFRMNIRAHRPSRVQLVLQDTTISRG
Sequence of 1-phosphatidylinositol 4,5-bisphosphate phosphodiesterase beta-3 (Q01970 whole entry): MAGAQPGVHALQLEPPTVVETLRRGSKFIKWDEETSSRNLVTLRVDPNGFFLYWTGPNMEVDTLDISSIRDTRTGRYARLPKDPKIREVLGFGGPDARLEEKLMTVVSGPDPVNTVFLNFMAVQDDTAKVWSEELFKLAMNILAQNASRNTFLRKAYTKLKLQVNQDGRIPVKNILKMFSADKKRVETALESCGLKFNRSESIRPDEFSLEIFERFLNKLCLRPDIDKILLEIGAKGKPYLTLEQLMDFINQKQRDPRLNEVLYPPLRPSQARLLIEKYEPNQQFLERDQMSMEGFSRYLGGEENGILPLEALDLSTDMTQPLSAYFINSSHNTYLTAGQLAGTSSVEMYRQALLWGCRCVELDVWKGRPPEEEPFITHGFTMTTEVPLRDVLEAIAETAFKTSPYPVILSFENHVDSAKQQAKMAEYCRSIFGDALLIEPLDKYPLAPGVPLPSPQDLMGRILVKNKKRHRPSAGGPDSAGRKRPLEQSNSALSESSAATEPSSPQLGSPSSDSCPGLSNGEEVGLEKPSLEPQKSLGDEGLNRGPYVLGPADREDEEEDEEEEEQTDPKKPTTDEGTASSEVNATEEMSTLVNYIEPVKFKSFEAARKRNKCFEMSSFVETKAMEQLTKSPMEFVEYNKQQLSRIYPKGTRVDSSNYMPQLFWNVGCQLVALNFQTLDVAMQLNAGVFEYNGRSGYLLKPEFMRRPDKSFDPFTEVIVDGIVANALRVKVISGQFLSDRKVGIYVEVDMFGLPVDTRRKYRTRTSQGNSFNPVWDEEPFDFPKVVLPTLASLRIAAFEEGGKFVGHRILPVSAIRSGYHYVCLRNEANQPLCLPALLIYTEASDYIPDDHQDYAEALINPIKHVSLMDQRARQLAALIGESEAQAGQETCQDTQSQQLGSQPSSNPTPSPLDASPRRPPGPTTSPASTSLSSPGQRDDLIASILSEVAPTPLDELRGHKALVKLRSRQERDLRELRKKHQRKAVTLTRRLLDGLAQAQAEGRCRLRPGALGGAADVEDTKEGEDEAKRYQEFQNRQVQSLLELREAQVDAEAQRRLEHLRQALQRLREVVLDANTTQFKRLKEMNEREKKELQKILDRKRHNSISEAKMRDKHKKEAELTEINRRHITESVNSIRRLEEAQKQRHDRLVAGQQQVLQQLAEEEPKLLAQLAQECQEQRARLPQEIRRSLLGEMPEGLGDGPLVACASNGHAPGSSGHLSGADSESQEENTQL

What is called EC50 is the concentration at which the effect is half-maximal. For orientation: IC50 means the concentration needed to halve the response being measured. Regarding `CCCN(CCC)Cc1c(C(=O)NN=Cc2c[nH]c3ccccc23)nnn1-c1nonc1N`, the EC50 on Cannabinoid receptor 2 [1] is > 32 µM (inactive); in assay [3], 0.633 µM (active). The IC50 at Cannabinoid receptor 2 [2] and on Cannabinoid receptor 1 was > 32 µM (inactive) throughout.
Turning to `O=C1Nc2ccc([N+](=O)[O-])cc2C12NNc1ccccc1O2` (configuration not stated), the IC50 in [4], in assay [5] and in assay [6] was > 100 µM (inactive) throughout.
For the molecule `O=C1/C(=C/C=C/c2ccco2)SC(=S)N1c1ccc(O)cc1`, the EC50 in assay [7] is 84.7 µM (active); in assay [10] it was 59 µM (active); in [12] it was 91.3 µM (active). Moreover, the IC50 in assay [8] was 1.72 µM (active); in [9] it was > 123 µM (inactive); in [11], > 123 µM (inactive); at NS3, 5.35 µM (active).
In the case of `Cc1cc(C)n2nc3nc(N4CCCCC4)nc(-c4ccco4)c3c2n1`, the EC50 in assay [13] is > 100 µM (inactive).
With `CC(C(=O)O)N1Cc2ccccc2C1=O` (configuration not stated), the IC50 in assay [14] and in [15] was > 200 µM (inactive) each time.
